Values quoted from earlier work in US20220265833A1, “ASPARTIC PROTEASE-TRIGGERED ANTIFUNGAL HYDROGELS” (priority 2017, published 2022).
Square brackets hold non-standard residues; d marks the D form. Ends that are not written are not given here. Phe(4-NO2) = N[C@@H](Cc1ccc([N+](=O)[O-])cc1)C(=O)O

Test system: Saps

Row | Substance | rank of peptide-Sap catalytic efficiency
1 | LAF(p-NO2)FGAPK (LA[Phe(4-NO2)]FGAPK) [LFFK.AG] | In order of decreasing catalytic efficiencies, these peptides were: LFFK.AG, LFFK.A2, and LFFK
2 | LAF(p-NO2)FLAPK (LA[Phe(4-NO2)]FLAPK) [LFFK.A2] | In order of decreasing catalytic efficiencies, these peptides were: LFFK.AG, LFFK.A2, and LFFK
3 | LRF(p-NO2)↓FLAPK (LR[Phe(4-NO2)]FLAPK) [LFFK] | In order of decreasing catalytic efficiencies, these peptides were: LFFK.AG, LFFK.A2, and LFFK
